Experimental data from US5068325A, “4,5,7,8-tetrahydro-6H-thiazolo[5,4-d]azepines, their preparation and their use as pharmaceutical compositions” (priority 1988, dated 1991).

Experiments:
[1] = target: dopamine D2-receptors (Rattus norvegicus, UniProt P61169); experiment: affinity for dopamine D2-receptors by displacement experiments with [3H]-spiperone (rat striatum membranes); assay type: binding; settings: for Ki: [3H]-spiperone, high-affinity form of the dopamine receptor; for α2-IC50 / D2-Ki: relative affinity for dopamine-D2 receptors compared with α2-adrenoceptors, the higher, the higher the D2/α2 selectivity
Sequence of dopamine D2-receptors (P61169 whole entry): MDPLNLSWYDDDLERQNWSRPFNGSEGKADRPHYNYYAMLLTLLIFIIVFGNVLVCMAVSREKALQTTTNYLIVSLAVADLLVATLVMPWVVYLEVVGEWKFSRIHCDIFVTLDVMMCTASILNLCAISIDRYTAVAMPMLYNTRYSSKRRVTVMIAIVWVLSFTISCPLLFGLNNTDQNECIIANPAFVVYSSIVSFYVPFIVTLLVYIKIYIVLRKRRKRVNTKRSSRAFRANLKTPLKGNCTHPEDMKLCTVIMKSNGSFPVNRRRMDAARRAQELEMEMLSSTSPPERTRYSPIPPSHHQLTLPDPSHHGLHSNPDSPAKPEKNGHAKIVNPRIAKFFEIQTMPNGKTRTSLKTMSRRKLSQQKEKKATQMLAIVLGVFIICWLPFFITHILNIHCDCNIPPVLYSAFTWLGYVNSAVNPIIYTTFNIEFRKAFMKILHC
Description: 1Determining the affinity for dopamine D2-receptors by displacement experiments with [^3 H]-spiperone (Modified Method of W. Billard et al., Life Sci. 35, 1885 (1984) and D. J. de Vries and P. M. Beart, Eur. J. Pharmacol. 109, 417 (1985))
Male rats (of the Chbb:Thom strain weighing about 200 g) were killed by a blow to the back of the neck. The brains were removed and dissected on ice. The striata were dissected out, weighed and homogenised in 25 volumes of tris buffer (50 mM tris-HCl, 1 mM EDTA, 5 mM MgCl2 and 1 mM ascorbic acid) for 30 seconds in an Ultra-Turrax at maximum speed, followed by 10 cycles in a Potter-Elvehjem at 1400 rpm. The pellet obtained after centrifuging at 50,000×g at 4° C. for 15 minutes was again taken up in 25 ml of tris buffer and centrifuged under the above conditions. The supernatant was discarded and the pellet obtained was incubated in 25 ml of tris buffer at 37° C. for 30 minutes and then centrifuged again at 50,000×g at 4° C. for 15 minutes. Finally, the pellet obtained was mixed with tris buffer to obtain a homogenate dilution of 1:500 (based on the weight of the striata).
1 ml aliquots of the membrane preparation were incubated with 1 ml of a solution of 0.25 nM [^3 H]-spiperone ([…], Messrs. DuPont NEN) and at increasing concentrations of the test substance (10^-11 to 10^-4 M) at ambient temperature for one hour. Incubation was ended by the addition of 5 ml of ice cold tris buffer and filtration using Whatman GF/B filters. The filters were washed twice, each time with 5 ml of ice cold buffer. The radioactivity of the filters was determined by liquid scintillation measurement in Instagel^(R) (Messrs. Canberra Packard). Non-specific binding was determined in the presence of 10^-5 M haloperidol (Sigma Chemical Co.).
Displacement curves were obtained from the data using the TOPFIT programming package (G. Heinzel in "Pharmacokinetics During Drug Development: Data Analysis and Evaluation Techniques", G. Bozler and J. M. van Rossum Eds., G. Fischer Verlag, Stuttgart 1982, 207).

[2] = target: T1, alpha-2 receptors (Rattus norvegicus, UniProt P22909); experiment: affinity for alpha-2 receptors by displacement experiments with [3H]-clonidine (rat cortex membranes); assay type: binding; settings: read-out: α2-IC50
T1 sequence (P22909 1-465): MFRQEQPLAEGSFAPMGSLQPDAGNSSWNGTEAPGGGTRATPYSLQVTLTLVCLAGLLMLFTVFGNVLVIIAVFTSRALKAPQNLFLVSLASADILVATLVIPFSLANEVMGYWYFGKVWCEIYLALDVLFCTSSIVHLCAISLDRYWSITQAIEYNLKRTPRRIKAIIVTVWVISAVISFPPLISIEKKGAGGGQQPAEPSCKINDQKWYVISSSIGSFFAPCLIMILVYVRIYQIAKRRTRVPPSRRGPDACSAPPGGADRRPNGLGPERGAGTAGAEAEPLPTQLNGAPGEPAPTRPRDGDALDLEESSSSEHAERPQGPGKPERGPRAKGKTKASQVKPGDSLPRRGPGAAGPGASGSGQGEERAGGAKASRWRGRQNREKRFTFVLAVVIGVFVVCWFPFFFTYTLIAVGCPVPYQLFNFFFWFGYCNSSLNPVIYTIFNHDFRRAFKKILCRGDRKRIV
Description: Determination of the affinity for alpha-2 receptors by displacement experiments with [^3 H] clonidine (Modified Method of B. Jarrott, W. J. Louis and R. J. Summers, Biochem. Pharmacol. 27, 141 (1979))
A male rat (Chbb:Thom strain weighing about 200 g) was killed by a blow to the back of the neck. The brain was removed and the cortex dissected out, weighed and homogenised in 25 volumes of tris buffer (50 mM tris- HCl, pH 7.50) for 30 seconds in an Ultra-Turrax at maximum speed, followed by 10° Cycles in a Potter- Elvehjem at 1400 rpm. The homogenised material was combined with tris buffer to obtain a homogenate dilution of 1:50 (based on the weight of the cortex).
1 ml aliquots of the membrane preparation were incubated for three hours at ambient temperature with 1 ml of a solution of 1 nM of [^3 H]-clonidine (2.2 TBq/mmol, Messrs. DuPont NEN) and with increasing concentrations of the test substance (10^-11 to 10^-4 M). Incubation was ended by the addition of 5 ml of ice-cold tris buffer and filtration through Whatman GF/B filters. The filters were washed twice, each time with 5 ml of ice cold buffer. The radioactivity of the filters was determined by liquid scintillation measurement in Instagel(R) (Messrs. Canberra Packard). The non-specific binding was determined in the presence of 10^-5 M of oxymetazoline (Sigma Chemical Co.).

[3] = tested on: MPTP monkeys; experiment: post-synaptic dopaminergic activity in MPTP monkeys; assay type: in vivo, rhesus monkey; settings: for minimal effective dose: Primates, in Macaca mulatta, im, rhesus monkeys, i.m., read-out: minimum dose (MED) required to alleviate the Parkinson's symptoms; for effect on MPTP-induced symptoms: MPTP-treated rhesus monkeys
Text: 6. Determining the post-synaptic dopaminergic activity in MPTP monkeys (Modified Method of R. S. Burns et al., Proc. Natl. Acad. Sci. 80. 4546 (1983))
The neurotoxin 1-methyl-4-phenyl-1,2,3,6- tetrahydro-pyridine (MPTP) produces in humans and monkeys an irreversible syndrome which in its clinical, pathological, biochemical and pharmacological appearance is very similar to idiopathic Parkinson's disease (Markey et al., Nature 311, 464 (1984)). The reason for this similarity is that MPTP selectively destroys those dopaminergic nerve cells in the substantia nigra of the brain which are also lost by degenerative processes in Parkinson's disease. There is even some discussion that MPTP or an MPTP-like substance might be formed in the body and trigger Parkinson's disease (S. H. Snyder, Nature 311, 514 (1984)). Possibly because of the specific MPTP metabolism, the clinical formation of the MPTP-induced Parkinson syndrome has hitherto been detected only in humans and monkeys. The MPTP model produced in the rhesus monkey is therefore exceptionally suitable for testing the activity of post-synaptically acting dopamine agonists. For this purpose, rhesus monkeys were given MPTP in overall doses of up to about 6 mg/kg of body weight, until the following symptoms appeared: The animals were akinetic and unable to take water and food.
It is clear that with the compounds according to the invention there is no sedative effect or ataxia at a dosage which is several times the MED, which can be put down to the absence of a corresponding activity mediated by the α2- receptors.

Row | Structure (SMILES) | Ki [1] | α2-IC50 / D2-Ki [1] | IC50 [2] | other results
1 | Nc1nc2c(s1)CCN(CC=Cc1ccc(Cl)cc1)CC2 [Example 3a, 2-Amino-6-(3-(4-chloro-phenyl)allyl)-4,5,7,8-tetrahydro-6H-thiazolo[5,4-d]azepine] | 7 nM | 88 | 620 nM | 
2 | Cl.Cl.Nc1nc2c(s1)CCN(CCCc1ccccc1)CC2 [Example 3b, 2-Amino-6-(3-phenyl-propyl)-4,5,7,8-tetrahydro-6H-thiazolo[5,4-d]azepine-dihydrochloride] | 24 nM | 145 | 810 nM | 
3 | COc1ccc(OC)c(C=CCN2CCc3nc(N)sc3CC2)c1 [Example 4p, 2-Amino-6-(3-(2,5-dimethoxy-phenyl)allyl)-4,5,7,8-tetrahydro-6H-thiazolo[5,4-d]azepine] | 0.89 nM | 100 | 89 nM | Duration of activity ([3]; 0.05 mg/kg i.m. (MED)): ~ 2 hours; Side effects ([3]; 0.05 mg/kg i.m. (MED)): none; Duration of activity ([3]; 0.30 mg/kg i.m.): 2.0 to 5 h; Side effects ([3]; 0.30 mg/kg i.m.): none; minimal effective dose [3]: 0.05 mg/kg
4 | CC(C)COc1ccc(C=CCN2CCc3nc(N)sc3CC2)cc1 [Example 8n, 2-Amino-6-(3-(4-isobutoxy-phenyl)allyl)-4,5,7,8-tetrahydro-6H-thiazolo[5,4-d]azepine] | 15 nM | 133 | 2000 nM | 
5 | Cc1nc(C=CCN2CCc3nc(N)sc3CC2)cs1 [Example 9, 2-Amino-6-(3-(2-methyl-4-thiazolyl)allyl)-4,5,7,8,-tetrahydro-6H-thiazolo[5,4-d]azepine-semihydrate] | 6.7 nM | 79 | 530 nM | 
6 | Nc1nc2c(s1)CCN(CC#Cc1ccccn1)CC2 [Example 10, 2-Amino-6-(3-(2-pyridyl)-2-propyn-1-yl)-4,5,7,8-tetrahydro-6H-thiazolo[5,4-d]azepine] | 17 nM | 882 | 15000 nM | 
7 | Nc1nc2c(s1)CCN(CC=Cc1cccc(Cl)n1)CC2 [Example 11, 2-Amino-6-(3-(6-chloro-2-pyridyl)allyl)-4,5,7,8-tetrahydro-6H-thiazolo[5,4-d]azepine] | 3.2 nM | 256 | 820 nM | 
8 | Cc1cccnc1C=CCN1CCc2nc(N)sc2CC1 [Example 11i, 2-Amino-6-(3-(3-methyl-2-pyridyl)allyl)-4,5,7,8-tetrahydro-6H-thiazolo[5,4-d]azepine] | 2.6 nM | 576 | 1500 nM | Duration of activity ([3]; 0.05 mg/kg i.m. (MED)): ~ 1.5 hours; Side effects ([3]; 0.05 mg/kg i.m. (MED)): none; Duration of activity ([3]; 0.20 mg/kg i.m.): 2.0 to 5 h; Side effects ([3]; 0.20 mg/kg i.m.): none; minimal effective dose [3]: 0.05 mg/kg
9 | Nc1nc2c(s1)CCN(CC=Cc1ccccc1O)CC2 [Example 15, 2-Amino-6-(3-(2-hydroxy-phenyl)allyl)-4,5,7,8-tetrahydro-6H-thiazolo[5,4-d]azepine] | 0.95 nM | 621 | 590 nM | 
10 | Nc1nc2c(s1)CCN(CC=Cc1ccccc1N)CC2 [Example 16, 2-Amino-6-(3-(2-amino-phenyl)allyl)-4,5,7,8-tetrahydro-6H-thiazolo[5,4-d]azepine] | 1.4 nM | 285 | 400 nM | 
11 | CN1CCc2cccc3c2[C@H]1Cc1ccc(O)c(O)c1-3 [apomorphine, reference compound] |  |  |  | effect on MPTP-induced symptoms [3]: temporary cessation of this phenomenon
12 | N[C@@H](Cc1ccc(O)c(O)c1)C(=O)O [levodopa, reference compound] |  |  |  | effect on MPTP-induced symptoms [3]: temporary cessation of this phenomenon

Continued, in another order:

Row | Ki [1] | α2-IC50 / D2-Ki [1] | IC50 [2] | Structure (SMILES) | other results
13 | 3 nM | 63 | 190 nM | Nc1nc2c(s1)CCN(CC=Cc1ccccc1Cl)CC2 [Example 4e, 2-Amino-6-(3-(2-chloro-phenyl)allyl)-4,5,7,8-tetrahydro-6H-thiazolo[5,4-d]azepine] | 
14 | 2 nM | 120 | 240 nM | Nc1nc2c(s1)CCN(CC=Cc1ccccc1[N+](=O)[O-])CC2 [Example 4g, 2-Amino-6-(3-(2-nitro-phenyl)allyl)-4,5,7,8-tetrahydro-6H-thiazolo[5,4-d]azepine] | 
15 | 13 nM | 157 | 2050 nM | Nc1nc2c(s1)CCN(CC=Cc1ccc([N+](=O)[O-])cc1)CC2 [Example 4i, 2-Amino-6-(3-(4-nitro-phenyl)allyl)-4,5,7,8-tetrahydro-6H-thiazolo[5,4-d]azepine] | 
16 | 1.3 nM | 423 | 550 nM | COc1cccc(C=CCN2CCc3nc(N)sc3CC2)c1OC [Example 4o, 2-Amino-6-(3-(2,3-dimethoxy-phenyl)allyl)-4,5,7,8-tetrahydro-6H-thiazolo[5,4-d]azepine] | 
17 | 8 nM | 287 | 2300 nM | Nc1nc2c(s1)CCN(CC=Cc1ccccc1-c1ccccc1)CC2 [Example 4v, 2-Amino-6-(3-(2-biphenyl)allyl)-4,5,7,8-tetrahydro-6H-thiazolo[5,4-d]azepine] | 
18 | 8.4 nM | 452 | 3800 nM | Nc1nc2c(s1)CCN(CC=Cc1ccc(OCc3ccccc3)cc1)CC2 [Example 4z, 2-Amino-6-(3-(4-benzyloxy-phenyl)allyl)-4,5,7,8-tetrahydro-6H-thiazolo[5,4-d]azepine] | 
19 | 14 nM | 235 | 3300 nM | Nc1nc2c(s1)CCN(CC(=Cc1ccccc1)c1ccccc1)CC2 [Example 8o] | 
